This passage reports melting point results from patent US6828343B2, “Bicyclic pyrrolyl amides as glycogen phosphorylase inhibitors” (Pfizer, Inc., priority 1999, dated 2004).

As usually defined, the melting point is the temperature of the solid-liquid transition. For `O=C(N[C@@H](Cc1ccccc1)C(=O)N1CCOCC1)c1cc2cc(Cl)sc2[nH]1` [Example 19, 2-chloro-6H-thieno[2,3-b]pyrrole-5-carboxylic acid [(1S)-benzyl-2-morpholin-4-yl-2-oxo-ethyl]-amide], the melting point was in the range of 108 to 110 °C.
